Results published in article PMC7555349, “1,4-Disubstituted-1,2,3-Triazole Compounds Induce Ultrastructural Alterations in Leishmania amazonensis Promastigote: An in Vitro Antileishmanial and in Silico Pharmacokinetic Study” (International Journal of Molecular Sciences, 2020).
Where two headings read alike, the source gives them in different places.

What was measured:
[1] = system: Leishmania amazonensis promastigote; assay: Activity against promastigote forms (MTT); assay type: cell-based; settings: for IC50: read-out: IC50 Promastigote
Protocol: Leishmania amazonensis (MHOM/BR/76/MA-76) promastigote forms of were cultured at 26 °C in Schneider’s Insect medium added with 10% fetal bovine sera (FBS), 100 U/mL of penicillin and 100 µg/mL of streptomycin. Parasite cultures with a maximum of seven in vitro passages were used. […] Blanks composed by wells without parasites and wells with parasites plus DMSO 1% only were used as controls. A modified colorimetric method with tetrazolium-dye MTT was used to evaluate parasite viability. A quantity of 10 µL of MTT (5 mg/mL) was added to each well. After five hours, 150 µL of DMSO was added to each well to dissolve the formazan crystals. Absorbance was read on a spectrophotometer at a wavelength of 570 nm. The data was normalized and the results were used to calculate the IC50 (50% inhibition of parasite growth). Miltefosine was used as a reference drug.

[2] = system: Leishmania amazonensis intracellular amastigotes; assay: Activity against intracellular amastigote in infected peritoneal macrophages, and selectivity index; assay type: cell-based; settings: for amastigotes per infected cell / number of amastigotes per 200 cells / parameters of infection (amastigotes per 200 cells, percentage of infected cells, amastigotes per infected cell): compared with untreated infected cells; for IC50: Leishmania amazonensis, Peritoneal macrophage, in Mus musculus, read-out: IC50 Intracellular Amastigote; for SI (selectivity index): ratio of CC50 versus the IC50 for intracellular amastigotes
Protocol: Activity against the intracellular amastigotes was carried out in 24-well plates with coverslips with peritoneal macrophages (5 × 10^5 cells/well). Cells were infected with L. amazonensis promastigote forms using a ratio of 10:1 parasite/cell. After 6 h after infection the cells were washed three times with PBS to remove non-internalized parasites. […] The infected and treated cells adhered to the coverslips were fixed with Bouin, stained with Giemsa’s azur-eosin-methylene blue and examined by light microscopy. […] The percentage of infected cells was determined by number of infected cells divided by two. […] The selectivity index was calculated from the ratio of CC50 versus the IC50 for intracellular amastigotes.

Cytotoxicity assay (MTT) = assay type: cell-based, BALB/c mice; settings: mouse
Protocol: The peritoneal macrophages were obtained from BALB/c mice elicited with 3 mL Brewer thioglycollate medium for 72 h, intraperitoneal. After euthanasia, cells were obtained by peritoneal washing with PBS, centrifuged at 4000 rpm for 5 min, and suspended in RPMI 1640 medium plus 10% FBS, 100 U/mL of penicillin and 100 µg/mL of streptomycin [50]. The cells were immediately used in experiments and maintained at 37 °C and 5% CO2.
Blanks were composed by wells without cells and wells with cells plus 1% of DMSO only. Cell viability was carried out by the modified MTT colorimetric method as described before. Tem microliters of MTT at 5 mg/mL was added to each well and incubated for two hours at 37 °C and 5% CO2. The plate was then centrifuged for five minutes at 1500 rpm, the supernatants were removed and the formazan crystals solubilized with 100 μL of DMSO in a shaker-plate for 10 min. The absorbance was determined in a spectrophotometer at a wavelength of 570 nm.

[3] = system: Leishmania amazonensis promastigotes; assay: Transmission electron microscopy of treated promastigotes; assay type: cell-based; settings: 24 h of treatment at IC50
Protocol: The parasites were fixed with 2.5% glutaraldehyde in a 0.1 M sodium-cacodylate buffer, pH 7.2 overnight. Then, parasites were washed three times with 0.1 M sodium-cacodylate buffer, post-fixed in a solution composed by 1% osmium tetroxide, 0.8% potassium ferrocyanide, and 5 mM calcium chloride, dehydrated in graded acetone and embedded in EPON 812.

[4] = system: BALB/c peritoneal macrophages; assay: Nitrite quantification (Griess) in supernatant of macrophages stimulated with L. amazonensis; assay type: cell-based, BALB/c mice; settings: compound at 18.7 μM, 48 h
Protocol: BALB/c peritoneal macrophages at 5 × 10^6 cells/mL were stimulated with L. amazonensis promastigotes (10:1 parasites:cell) for one hour, and treated with different concentrations of triazole compounds for 48 h. Nitrite quantification of the supernatant of the cells was performed with Griess reagent. […] The nitrite concentrations were obtained from the standard curve of sodium nitrite (100 to 0.3 μM).

[5] = L. amazonensis promastigotes, 24 h of treatment per table title, MTT
[6] = Leishmania amazonensis, 24 h, L. amazonensis promastigotes, 24 h of treatment per table title, MTT
[7] = L. amazonensis in BALB/c peritoneal macrophages, 24 h of treatment
[8] = BALB/c peritoneal macrophages, 24 h of treatment, MTT, read-out: CC50

SMILES | IC50 [1, 5] | IC50 [1, 6] | number of amastigotes per 200 cells ([2]; 37.5 μM, 24 h) | parameters of infection (amastigotes per 200 cells, percentage of infected cells, amastigotes per infected cell) ([2]; 37.5 μM, 24 h) | IC50 [2, 7] | SI (selectivity index) [2] | CC50 at 24 h (Cytotoxicity assay (MTT); [8]) | ultrastructural alterations in promastigotes [3] | other results
C(=N\Nc1ccccc1)/c1ccccc1-n1cc(COc2ccccc2)nn1 [Compound 6] | 14.6 ± 4.39 µM | ~15 µM | remarkable reduction | altered all the three parameters of infection | 17.8 ± 3.26 µM | 30.81 | 547.9 ± 3.26 µM | lipid corpuscles (white arrows) (Figure 7A), large vacuoles containing electron-dense material | amastigotes per infected cell ([2]; 18.7 μM, 24 h): still able to reduce; number of amastigotes per 200 cells ([2]; 18.7 μM, 24 h): still able to reduce; nitrite level relative to untreated infected macrophages [4]: 2.3 fold
O=Cc1ccccc1-n1cc(COc2ccccc2)nn1 [Compound 1] | 53.7 ± 8.47 µM | > 50 µM | – | – | – | – | 221 ± 4.82 µM | – | –
O=Cc1ccccc1-n1cc(COc2cccc(OCc3cn(-c4ccccc4C=O)nn3)c2)nn1 [Compound 2] | 8.85 ± 3.44 µM | < 10 µM | decreased | – | 37.9 ± 3.35 µM | 6.55 | 248 ± 2.52 µM | increase in lipid corpuscles (white arrows), electron dense vesicles inside small vacuoles in the cytoplasm | amastigotes per infected cell ([2]; 37.5 μM, 24 h): decreased
O=c1ccc2cc(-n3cc(COc4ccccc4)nn3)ccc2o1 [Compound 10] | – | > 300 µM | – | – | – | – | > 600 µM | – | IC50 Promastigote [1, 5]: did not exhibit any such activity even at the maximum analyzed concentration
CCCCCCCCCCCCCCCCOP(=O)([O-])OCC[N+](C)(C)C [Miltefosine, miltefosine, reference compound] | – | – | – | – | – | – | – | – | IC50 ([1]; Leishmania amazonensis, 24 h): 8.56 ± 0.695 µM; parameters of infection (amastigotes per 200 cells, percentage of infected cells, amastigotes per infected cell) ([2]; 25 and 12.5 μM, 24 h): reduction of all three parameters of infection; IC50 ([2]; 24 h): 11.6 ± 1.79 µM; CC50 at 24 h (Cytotoxicity assay (MTT); BALB/c): 153 ± 3.85 µM
Cc1ccc(S(=O)(=O)N/N=C/c2ccccc2-n2cc(COc3ccccc3)nn2)cc1 [Compound 5] | 8.81 ± 3.93 µM | < 10 µM | – | reduced all the three parameters of infection | 32.3 ± 2.26 µM | 1.79 | 58 ± 2.65 µM | lipid corpuscles (white arrows) (Figure 6A), extension of the kinetoplast containing granular material | –
OCc1ccccc1-n1cc(COc2ccccc2)nn1 [Compound 8] | – | > 300 µM | – | – | – | – | > 600 µM | – | IC50 Promastigote [1, 5]: did not exhibit any such activity even at the maximum analyzed concentration
O=Cc1ccccc1-n1cc(-c2ccccc2)nn1 [Compound 7] | 63 ± 5.88 µM | > 50 µM | – | – | – | – | 412 ± 4.92 µM | – | –
C#CCOc1cccc(OCc2cn(-c3ccccc3C=O)nn2)c1 [Compound 4] | 15.7 ± 5.42 µM | ~15 µM | statistically decreased | did not significantly alter the other parameters of infection | 150 ± 6.37 µM | 0.96 | 145 ± 4.1 µM | swelling of the kinetoplast and a change in chromatin distribution | increase in IC50 value against intracellular amastigote compared to promastigote forms [2]: 9.5 fold
O=Cc1ccccc1-n1cc(COc2cccc(O)c2)nn1 [Compound 3] | 50.9 ± 4.57 µM | > 50 µM | – | – | – | – | 308 ± 4.07 µM | – | –
